According to paper PMC9088062 (2018):

Tests used:
[1] = system: Tcy2 (DNA, G4) GGTTGGTTGGTTGGTTTT; test: FAM fluorescence quenching; conditions: 10 mM Tris-acetate pH 8.0, room temperature, 25 nM DNA
[2] = system: Tcy2 (DNA, G4) GGTTGGTTGGTTGGTTTT; test: circular dichroism; conditions: 10 mM MOPS pH 7.0, room temperature, 5 min; 1 μM DNA, 1 ppm cyromazine
[3] = system: Random DNA (DNA, single strand) ATCGACATGTAGCCGATGGC; test: FAM fluorescence quenching; conditions: 10 mM Tris-acetate pH 8.0, room temperature; 25 nM DNA; highest tested 100 ppb
[4] = tested at 50 ppb, no fluorescence change

Compound	binding [1, 4]	also measured
Cc1nc(C)c(Cl)c(O)c1Cl	no	–
c1ccc([C@H]2CN3CCSC3=N2)cc1	no	–
Cc1ccc(N=CN(C)C=Nc2ccc(C)cc2C)c(C)c1	no	–
O=C(N[C@H](CO)[C@H](O)c1ccc([N+](=O)[O-])cc1)C(Cl)Cl	no	–
CN(C)[C@@H]1C(=O)C(C(N)=O)=C(O)[C@@]2(O)C(=O)C3=C(O)c4c(O)cccc4[C@@](C)(O)[C@H]3[C@H](O)[C@@H]12	no	–
Nc1nc(N)nc(NC2CC2)n1	–	binding [2]: yes; binding ([1]; 2 min, static quenching): yes; binding [3]: no
CS(=O)(=O)c1ccc([C@@H](O)[C@@H](CO)NC(=O)C(Cl)Cl)cc1	no	–
